Values after ≈ are worked out from the molar mass of the structure shown. Like-named read-outs stand apart in the source and are kept apart here.

Consider ten compounds from US20090305995A1, “AGONISTS AND ANTAGONISTS OF THE SOMATOSTATIN RECEPTOR” (Novartis AG, priority 2004, published 2009).

The nature of data set [1]: high throughput solubility (HT-Solubility). Format: physicochemical. Conditions: for water solubility (in words): see FIG. 10.
Data set [2] can be described thus: logP octanol by pH-metric titration (GLpKa instrument). It is filed as physicochemical. The conditions noted are these: read-out: log P/D logP octanol. The method, then:
In order to have a real measure of log P values for highly polar compounds, respective values for compounds 1 to 3 (C-terminal L-β-homothreonine amides) and compounds 7 to 9 (C-terminal 4-amino-5-methyl-dihydro-fuan-2-ones) are measured by employing pH-metric titration technology using a GLpKa instrument (Box et al. 2003). The high polarity of these two mixed α/β^3-tetrapeptides can be controlled by N-terminal introduction of lipophilization tags. The conjugation with fatty acid analogs leads to compounds with druglike polarity (5, 6, 10, 11, 12, 13, 14, 15, 16, 17, 18 and 26).

Data set [3] in a line: high throughput permeability (HT-Permeability, log Pe). The conditions noted are these: PAMPA, Pe in cm/s. Format: physicochemical.
The nature of data set [4]: HT-logP o/w, high throughput assay based on artificial liquid membrane permeability. It is filed as physicochemical. In a few lines: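 Octanol/water partition coefficients measured in a high-throughput format based on permeability across an artificial liquid membrane.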
Data set [5] concerns the target T1, hsst4 receptor (Homo sapiens, UniProt P31391).
T1 construct: expressed in transfected cells; host or cells: Chinese hamster lung fibroblast (CCL39) cells
Briefly: radioligand-binding displacement assay ([125I]LTT-SRIF28), receptor expressed in CCL39 cells. Conditions: hsst4; [125I]LTT-SRIF28 displacement. The method, then: (§1) The generated peptides are tested for their affinity to bind to human SRIF receptors expressed in Chinese hamster lung fibroblast (CCL39) cells. This is achieved in radioligand-binding assays, a displacement experiment in which the concentration of a substance is measured which is necessary for the replacement of 50% of a specifically bound radioligand ([^125I]LTT-SRIF28). Specific binding is measured as the total binding of receptor-specific radioligand minus the amount of radioligand bound in presence of unmarked SRIF-14 (100 nM, nonspecific binding).

Data set [6] relates to human SRIF receptors. Nature of the data set: radioligand-binding displacement assay on the human SRIF receptor family (selectivity). On the procedure:
as §1

[7] abbreviates: pH 8, pH 8.0, read-out: HT-Permeability logPe pH 8.0 (converted).
[8] abbreviates: octanol/water; read-out: HT LogP ohw.
[9] abbreviates: pH 1, pH 1.0, read-out: HT-Solubility pH 1.0.
Where [10] appears, read: pH 6.8, pH 6.8, read-out: HT-Solubility pH 6.8.
Setting [11] is: pH 4, pH 4.0, read-out: HT-Permeability logPe pH 4.0 (converted).
Where [12] appears, read: pH 6.8, pH 6.8, read-out: HT-Permeability logPe pH 6.8 (converted).
Setting [13] is: octanol/water, read-out: HT LogP ohw.

T1 sequence (P31391 whole entry): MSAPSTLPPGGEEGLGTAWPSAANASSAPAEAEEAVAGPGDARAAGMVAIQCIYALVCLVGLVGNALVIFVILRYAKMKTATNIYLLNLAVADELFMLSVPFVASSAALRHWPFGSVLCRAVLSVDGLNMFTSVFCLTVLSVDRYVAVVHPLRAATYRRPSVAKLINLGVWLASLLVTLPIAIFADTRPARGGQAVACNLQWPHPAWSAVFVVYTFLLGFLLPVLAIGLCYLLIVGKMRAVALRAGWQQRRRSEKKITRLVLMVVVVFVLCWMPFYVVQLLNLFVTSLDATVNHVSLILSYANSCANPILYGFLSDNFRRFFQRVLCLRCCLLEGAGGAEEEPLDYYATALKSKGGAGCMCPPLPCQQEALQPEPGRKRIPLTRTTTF

With `CC(=O)N[C@H](CC(=O)N[C@H](Cc1c[nH]c2ccccc12)C(=O)N[C@@H](CCCCN)CC(=O)N[C@H](CC(N)=O)[C@@H](C)O)Cc1ccccc1` [Compound 3], in data set [1], the “HT-Solubility pH 1.0” value was 0.0133 g 1-1 and the “HT-Solubility pH 6.8” value was found to be 0.0133 g 1-1. Further, the logP in data set [2] stood at 0.4.
Regarding `CC(=O)N[C@H](CC(=O)N[C@H](Cc1c[nH]c2ccccc12)C(=O)N[C@@H](CCCCN)CC(=O)N[C@@H]1CC(=O)O[C@@H]1C)Cc1ccccc1` [Compound 8], the Papp in data set [3] (setting [7]) was 2 ×10⁻⁶ cm/s. In addition, the values for the logP in data set [4] (setting [8]) and in data set [2] were 3.4 and 0.4, respectively.
For `CCCCCN(C)C(=O)C[C@H](CCCCN)NC(=O)[C@@H](Cc1c[nH]c2ccccc12)NC(=O)C[C@H](Cc1ccccc1)NC(=O)CC` [Compound 49, Propionyl-(S)-β^3-HPhe-(R)-Trp-(S)-β^3-HLys-methyl-pentyl-amide], in data set [1], the “HT-Solubility pH 1.0” value came out at 0.1294 g 1-1, the “HT-Solubility pH 6.8” value is listed as 0.1294 g 1-1 and the “water solubility (in words)” value is listed as “highest solubility values”. Besides, in data set [4] (octanol/water), the “HT LogP ohw” value was 3.7. Also, in data set [2], the logP worked out at 2.8.
The Kd is a measure of binding affinity in units of concentration. A higher Kd goes with a looser complex. Broadly, the solubility is the concentration that dissolves in the medium under given conditions. As to `NCCCC[C@@H](CC(N)=O)NC(=O)[C@@H](Cc1c[nH]c2ccccc12)NC(=O)C[C@@H](N)Cc1ccccc1` [Compound 59, (S)-β^3-HPhe-(R)-Trp-(S)-β^3-HLys-NH2], the Kd in data set [5] is 1510 nM. The “affinity to the receptors of the SRIF family (in words)” value in data set [6] is given as “only very low affinity”. The solubility in data set [1] (setting [9]) is 101 µg/mL (≈ 200 µM); in data set [1] (setting [10]), 50.7 µg/mL (≈ 100 µM). Also, the Papp is 1 ×10⁻⁶ cm/s in data set [3] (setting [11]), 3.98 ×10⁻⁶ cm/s in data set [3] (setting [12]) and 3.16 ×10⁻⁶ cm/s in data set [3] (setting [7]). For the same compound, the logP in data set [2] came to 1.
As to `CCCCCN(C)C(=O)C[C@H](CCCCN)NC(=O)[C@@H](Cc1c[nH]c2ccccc12)N(C)C(=O)C[C@H](Cc1ccccc1)NC(=O)CC` [Compound 64], in data set [1], the “water solubility (in words)” value was “highest solubility values”. In addition, the Papp is 6.31 ×10⁻⁶ cm/s in data set [3] (setting [12]) and 2 ×10⁻⁶ cm/s in data set [3] (setting [7]). For the same compound, in data set [2], the logP turned out to be 3.1.
`CCCCCCN(C)C(=O)C[C@H](CCCCN)NC(=O)[C@@H](Cc1c[nH]c2ccccc12)N(C)C(=O)C[C@H](Cc1ccccc1)NC(=O)CC` [Compound 65, Propionyl-(S)-β^3-HPhe-(R)—N-Me-Trp-(S)-β^3-HLys-methyl-hexyl-amide] displayed a Kd in data set [5] of 57 nM. In addition, the solubility in data set [1] (setting [9]) and in data set [1] (setting [10]) was 135 µg/mL (≈ 200 µM) each time. In addition, the “water solubility (in words)” value in data set [1] is listed as “highest solubility values”. For the same compound, the results for the Papp in data set [3] (setting [11]), in data set [3] (setting [12]) and in data set [3] (setting [7]) were 12.6 ×10⁻⁶ cm/s, 2.51 ×10⁻⁶ cm/s and 5.01 ×10⁻⁶ cm/s, respectively. Also, the logP in data set [4] (setting [13]) is 4.1.
Take `CCCCCN(C)C(=O)C[C@H](CCCCN)NC(=O)[C@@H](Cc1c[nH]c2ccccc12)N(Cc1ccccc1)C(=O)C[C@H](Cc1ccccc1)NC(=O)CC` [Compound 66, Propionyl-(S)-β^3-HPhe-(R)—N-Benzyl-Trp-(S)-β^3-HLys-methyl-pentyl-amide]: the dissociation constant Kd in data set [5] is 14 nM. The solubility was determined as 147 µg/mL (≈ 200 µM) in data set [1] (setting [9]) and 14.7 µg/mL (≈ 19.9 µM) in data set [1] (setting [10]). The “water solubility (in words)” value in data set [1] was “does not allow for good water solubilities”. Moreover, the Papp in data set [3] (setting [12]) is 7.94 ×10⁻⁶ cm/s; in data set [3] (setting [7]) it was 3.98 ×10⁻⁶ cm/s. In addition, the logP in data set [4] (setting [13]) is 5.5.
Take `CCCCCN(C)C(=O)C[C@H](CCCCN)NC(=O)[C@@H](Cc1c[nH]c2ccccc12)N(Cc1ccccc1)C(=O)C[C@H](Cc1ccccc1)NC(=O)CC` [Compound 67]: the “selectivity amongst other hsst receptors (factor)” value in data set [6] (hsst4 versus other hsst receptors) is given as 100. The “water solubility (in words)” value in data set [1] was “does not allow for good water solubilities”. For the same compound, in data set [4] (setting [8]), the logP was 4.4.
On to `CCCCCNC(=O)C[C@H](CCCCN)NC(=O)[C@@H](Cc1c[nH]c2ccccc12)N(C)C(=O)C[C@H](Cc1ccccc1)NC(=O)CC` [Compound 70, Propionyl-(S)-β^3-HPhe-(R)—N-Me-Trp-(S)-β^3-HLys-pentyl-amide], for which the Kd in data set [5] worked out at 35 nM. The solubility in data set [1] (setting [9]) and in data set [1] (setting [10]) was 129 µg/mL (≈ 200 µM) in each case. The “water solubility (in words)” value in data set [1] is on record as “highest solubility values”. In addition, the Papp in data set [3] (setting [11]) is 5.01 ×10⁻⁶ cm/s; in data set [3] (setting [12]), 3.98 ×10⁻⁶ cm/s; in data set [3] (setting [7]), 12.6 ×10⁻⁶ cm/s. Further, in data set [4] (setting [13]), the logP worked out at 3.3.
For `CN(C(=O)C[C@@H](N)Cc1ccccc1)[C@H](Cc1c[nH]c2ccccc12)C(=O)N[C@@H](CCCCN)CC(N)=O` [Compound 72, (S)-β^3-HPhe-(R)—N-Me-Trp-(S)-β^3-HLys-NH2], the “HT-Solubility pH 1.0” value in data set [1] was 0.1041 g 1-1. The “HT-Solubility pH 6.8” value in data set [1] was determined as 0.1041 g 1-1. The values for the Papp in data set [3] (setting [11]), in data set [3] (setting [12]) and in data set [3] (setting [7]) were 5.01 ×10⁻⁶ cm/s, 7.94 ×10⁻⁶ cm/s and 6.31 ×10⁻⁶ cm/s, respectively. Moreover, the logP in data set [2] was 1.5.
